Assay [1] has as its system NQO1 activation in BEAS-2B cells. Description: BEAS-2B cellular MTT assay of NQO1 activation, 0.3% HSA. Type of assay: cell-based. The method in brief:
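BEAS-2B cells (<70% confluent in culture, BEBM/SingleQuots without GA-1000) seeded in collagen plates with 0.3% or 0% HSA, reaching 95-100% confluency after 48 h at 37 °C, 5% CO2; MTT read-out.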
On the technique in general: Formazan colour is commonly taken as a measure of viable cells.

For assay [2], the target named is HIS-Keap1 full length / Biotin-Nrf2 (16-mer) (Homo sapiens, UniProt Q14145). Description: biochemical.
[3] abbreviates: BEAS+ W, read-out: BEAS+ W EC50.
[4] abbreviates: Homo sapiens, BEAS+ W, read-out: BEAS+ W EC50.
[5] abbreviates: Homo sapiens, BEAS+, read-out: BEAS+ EC50.

Several values for one entry are separate records, joined by “and”; a condition that tells them apart may be missing. Identical values can stand only once. Like-named read-outs stand apart in the source and are kept apart here.

Sequence of HIS-Keap1 full length / Biotin-Nrf2 (16-mer) (Q14145 whole entry): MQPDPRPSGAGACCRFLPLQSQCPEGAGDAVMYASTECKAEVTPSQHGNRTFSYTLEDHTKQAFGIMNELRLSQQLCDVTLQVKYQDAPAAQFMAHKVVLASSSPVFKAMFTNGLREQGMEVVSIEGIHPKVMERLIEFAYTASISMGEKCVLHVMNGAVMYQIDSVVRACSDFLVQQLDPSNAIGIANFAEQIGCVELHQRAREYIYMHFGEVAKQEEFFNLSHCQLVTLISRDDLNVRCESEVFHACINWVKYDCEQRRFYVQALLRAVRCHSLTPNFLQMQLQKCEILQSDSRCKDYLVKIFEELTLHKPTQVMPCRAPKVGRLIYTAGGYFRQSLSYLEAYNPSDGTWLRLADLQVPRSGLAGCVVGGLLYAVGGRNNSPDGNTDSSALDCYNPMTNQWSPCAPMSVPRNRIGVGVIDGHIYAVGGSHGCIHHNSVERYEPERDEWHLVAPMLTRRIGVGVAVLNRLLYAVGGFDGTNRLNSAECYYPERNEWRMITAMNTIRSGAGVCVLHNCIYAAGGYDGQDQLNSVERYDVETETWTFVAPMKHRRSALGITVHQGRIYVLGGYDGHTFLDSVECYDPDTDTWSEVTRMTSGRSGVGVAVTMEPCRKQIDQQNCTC

Regarding `COc1cc2ccc1C(=O)N1CCc3ccc(cc3C1)C(CC(=O)O)c1cnc3c(nnn3CCCCC2)c1C` (stereo not shown) [Compound 144], the EC50 in assay [1] (setting [3]) was determined as 60.2 nM; in assay [1] (setting [4]) it was 32.4 nM. Moreover, the IC50 in assay [2] was 0.7 nM and 0.6 nM.
In the case of `O=C(O)CC1c2ccc3c(c2)CN(CC3)C(=O)c2ccc(cc2F)CCCCCCn2nnc3c(Cl)c1ccc32` (stereo not shown) [Compound 148], the EC50 in assay [1] (BEAS+, read-out: BEAS+ EC50) stood at 0.3 nM. For the same molecule, the IC50 in assay [2] was 0.3 nM and 0.4 nM and 0.8 nM and 0.7 nM.
On to `O=C(O)CC1c2cnc(nc2)OCCCCc2ccc(cc2Cl)C(=O)N2CCc3ccc1cc3C2` (stereo not shown) [Compound 221], for which the EC50 in assay [1] (setting [5]) is greater than 10000 nM. In assay [2], the IC50 was determined as 216 nM.
Taken in the same sequence, the figures for `O=C(O)CC1c2cnc(nc2)OCCCCc2cc(F)c(c(F)c2)C(=O)N2CCc3ccc1cc3C2` (stereo not shown) [Compound 242] were greater than 10000 nM and greater than 1000 nM.
`O=C(O)CC1c2cnc(nc2)OCCCCCc2cc(F)c(c(F)c2)C(=O)N2CCc3ccc1cc3C2` (stereo not shown) [Compound 246]: the EC50 is 1490 nM in assay [1] (BEAS+, read-out: BEAS+ EC50) and 992 nM in assay [1] (setting [5]). The molecule further showed an IC50 in assay [2] of 5.3 nM.
In the case of `Cc1cc2ccc1C(=O)N1CCc3ccc(cc3C1)[C@H](CC(=O)O)c1ccc3c(c1)nnn3CCCCCCO2` [Compound 326], the EC50 in assay [1] (setting [5]) stood at 804 nM. Moreover, in assay [2], the IC50 is 2.7 nM and 0.8 nM.
Consider `COC(=O)CC1c2ccc3c(c2)CN(CC3)C(=O)c2ccc(cc2C)OCCCCCn2nnc3cc1ccc32` (stereo not shown) [Compound 333], for which the EC50 in assay [1] (setting [5]) is greater than 10000 nM. For the same molecule, the IC50 in assay [2] was 1820 nM and > 1000 nM and 1220 nM.
Turning to `Cc1c2ccc3c1nnn3CCOCCCc1ccc(c(F)c1)C(=O)N1CCc3ccc(cc3C1)[C@H]2CC(=O)O` [Compound 363], the results for the EC50 in assay [1] (setting [3]) and in assay [1] (setting [4]) were 711 nM and 682 nM, respectively. Also, the IC50 in assay [2] is 9 nM and 8.5 nM.
Take `Cc1c2ccc3c1nnn3CCCOCCOc1cc(F)c(c(F)c1)C(=O)N1CCc3ccc(cc3C1)C2CC(=O)O` (stereo not shown) [Compound 368, 2-(20,32-difluoro-34-methyl-22-oxo-14,17-dioxa-8,9,10,23-tetrazahexacyclo[21.5.3.218,21.13,7.06,10.026,30]tetratriaconta-1(29),3(34),4,6,8,18(33),19,21(32),26(30),27-decaen-2-yl)acetic Acid]: the EC50 in assay [1] (BEAS+, read-out: BEAS+ EC50) was found to be 140 nM; in assay [1] (setting [5]) it was 114 nM. In assay [2], the 50% inhibitory concentration (IC50) was 0.1 nM and 0.2 nM.
For `Cc1cc2ccc1C(=O)N1CCc3ccc(cc3C1)C(CC(=O)O)c1ccc3c(nnn3CCCOCCO2)c1C` (stereo not shown) [Compound 374], the EC50 in assay [1] (setting [3]) was found to be 297 nM; in assay [1] (setting [4]), 284 nM. Moreover, in assay [2], it took 1 nM to reach half-maximal inhibition (IC50).
As for `Cc1c2ccc3c1nnn3CCCCc1ccc3ccc(cc3c1)C(=O)N1CCc3ccc(cc3C1)C2CC(=O)O` (stereo not shown) [Compound 390], the EC50 turned out to be 5770 nM in assay [1] (BEAS+, read-out: BEAS+ EC50) and 3350 nM in assay [1] (setting [5]). Moreover, the IC50 in assay [2] was 5.1 nM and 5.6 nM.
With `Cc1c2ccc3c1nnn3CCC/C=C/COc1cnc(nc1)C(=O)N1CCc3ccc(cc3C1)C2CC(=O)O` (stereo not shown) [Compound 400], the EC50 came out at 29.3 nM in assay [1] (BEAS+, read-out: BEAS+ EC50) and 31.6 nM in assay [1] (setting [5]). Also, half-maximal inhibition in assay [2] (IC50) was put at 2 nM.
With `Cc1c2oc3cc(ccc13)OCCCCCn1nnc3c(C)c(ccc31)C(CC(=O)O)c1ccc3c(c1)CN(CC3)C2=O` (stereo not shown) [Compound 401], the EC50 in assay [1] (setting [5]) was 7110 nM. Also, in assay [2], the IC50 was 6.1 nM and 6.5 nM.
Consider `Cc1c2oc3cc(ccc13)OCCCCCCn1nnc3c(C)c(ccc31)C(CC(=O)O)c1ccc3c(c1)CN(CC3)C2=O` (stereo not shown) [Compound 402], for which the EC50 in assay [1] (setting [5]) is greater than 10000 nM. Besides, the IC50 in assay [2] was 58.7 nM and 57.7 nM.
As for `O=C(O)CC1c2ccc3c(c2)CN(CC3)C(=O)c2cccc(c2)OCCCCCCn2nnc3cc1ccc32` (stereo not shown) [Compound 403], the EC50 in assay [1] (setting [5]) is greater than 10000 nM. For the same molecule, in assay [2], the IC50 is 146 nM and 192 nM.

The term EC50 denotes the concentration that produces a half-maximal response. One may read the IC50 as the concentration that gives 50% inhibition. Lower therefore signals inhibition by little substance.

These data come from patent publication US12692274B2, “Tetrahydroisoquinoline derivatives for the treatment of red blood disorders and inflammatory diseases” (Sanofi, priority 2020, dated 2026).
